System: Acinetobacter baumannii strains
Assay: Antibiotic susceptibility test (CLSI disk diffusion test method, read per CLSI 2016); as to antibiotic susceptibility S/I/R: key: ‘S’ means susceptible; ‘I’ means intermediate; ‘R’ means resistant; as to susceptibility category (S/I/R): key: ‘S’ means susceptible; ‘I’ means intermediate; ‘R’ means resistant
Format: cell-based
Set-up: antibiotic susceptibility test value / susceptibility test value (number given before S/I/R) / antibiotic susceptibility value: unit not given here

## cortrimoxazole
Host strain YMC16/01/R353
  antibiotic susceptibility value: 160
  susceptibility category (S/I/R): R
  susceptibility test value (number given before S/I/R): 160
Host strain YMC16/01/R380
  antibiotic susceptibility S/I/R: S
  antibiotic susceptibility value: 20
  susceptibility category (S/I/R): S
  susceptibility test value (number given before S/I/R): 20
Host strain YMC16/01/R397
  antibiotic susceptibility S/I/R: R
  antibiotic susceptibility value: 160
  susceptibility category (S/I/R): R
  susceptibility test value (number given before S/I/R): 160
Host strain YMC16/01/R405
  antibiotic susceptibility S/I/R: R
  antibiotic susceptibility value: 320
  susceptibility category (S/I/R): R
  susceptibility test value (number given before S/I/R): 320
Host strain YMC16/03/R4461
  antibiotic susceptibility S/I/R: R
  antibiotic susceptibility value: 320
  susceptibility category (S/I/R): R
  susceptibility test value (number given before S/I/R): 320
Host strain YMC16/05/R2210
  antibiotic susceptibility S/I/R: R
  antibiotic susceptibility value: 320
  susceptibility category (S/I/R): R
  susceptibility test value (number given before S/I/R): 320
Host strain YMC16/07/R2512
  antibiotic susceptibility S/I/R: R
  antibiotic susceptibility value: 320
  susceptibility category (S/I/R): R
  susceptibility test value (number given before S/I/R): 320
Host strain YMC16/09/R2471
  antibiotic susceptibility S/I/R: R
  antibiotic susceptibility value: 160
  susceptibility category (S/I/R): R
  susceptibility test value (number given before S/I/R): 160
Host strain YMC16/10/R2537
  antibiotic susceptibility S/I/R: R
  antibiotic susceptibility value: 160
  susceptibility category (S/I/R): R
  susceptibility test value (number given before S/I/R): 160
Host strain YMC16/12/B11422
  antibiotic susceptibility S/I/R: R
  antibiotic susceptibility value: 160
  susceptibility category (S/I/R): R
  susceptibility test value (number given before S/I/R): 160
Host strain YMC16/12/B11449
  antibiotic susceptibility S/I/R: R
  antibiotic susceptibility value: 320
  susceptibility category (S/I/R): R
  susceptibility test value (number given before S/I/R): 320
Host strain YMC16/12/B13325
  antibiotic susceptibility S/I/R: R
  antibiotic susceptibility value: 320
  susceptibility category (S/I/R): R
  susceptibility test value (number given before S/I/R): 320
Host strain YMC16/12/P503
  antibiotic susceptibility S/I/R: R
  antibiotic susceptibility value: 320
  susceptibility category (S/I/R): R
  susceptibility test value (number given before S/I/R): 320
Host strain YMC16/12/R4637
  antibiotic susceptibility S/I/R: R
  antibiotic susceptibility value: 320
  susceptibility category (S/I/R): R
  susceptibility test value (number given before S/I/R): 320
Host strain YMC17/01/B8053
  antibiotic susceptibility S/I/R: R
  antibiotic susceptibility value: 320
  susceptibility category (S/I/R): R
  susceptibility test value (number given before S/I/R): 320
Host strain YMC17/01/B10087
  antibiotic susceptibility S/I/R: R
  antibiotic susceptibility value: 160
  susceptibility category (S/I/R): R
  susceptibility test value (number given before S/I/R): 160
Host strain YMC17/01/B12075
  antibiotic susceptibility S/I/R: S
  antibiotic susceptibility value: 20
  susceptibility category (S/I/R): S
  susceptibility test value (number given before S/I/R): 20
Host strain YMC17/01/B13454
  antibiotic susceptibility S/I/R: R
  antibiotic susceptibility value: 160
  susceptibility category (S/I/R): R
  susceptibility test value (number given before S/I/R): 160
Host strain YMC17/01/P518
  antibiotic susceptibility S/I/R: R
  antibiotic susceptibility value: 160
  susceptibility category (S/I/R): R
  susceptibility test value (number given before S/I/R): 160
Host strain YMC17/01/R2812
  antibiotic susceptibility S/I/R: R
  antibiotic susceptibility value: 320
  susceptibility category (S/I/R): R
  susceptibility test value (number given before S/I/R): 320
Host strain YMC17/02/B14
  antibiotic susceptibility S/I/R: R
  antibiotic susceptibility value: 320
  susceptibility category (S/I/R): R
  susceptibility test value (number given before S/I/R): 320
Host strain YMC17/02/B87
  antibiotic susceptibility S/I/R: R
  antibiotic susceptibility value: 320
  susceptibility category (S/I/R): R
  susceptibility test value (number given before S/I/R): 320
Host strain YMC17/02/B721
  antibiotic susceptibility S/I/R: R
  antibiotic susceptibility value: 320
  susceptibility category (S/I/R): R
  susceptibility test value (number given before S/I/R): 320
Host strain YMC17/02/B4039
  antibiotic susceptibility S/I/R: R
  antibiotic susceptibility value: 80
  susceptibility category (S/I/R): R
  susceptibility test value (number given before S/I/R): 80
Host strain YMC17/02/B4520
  antibiotic susceptibility S/I/R: R
  antibiotic susceptibility value: 160
  susceptibility category (S/I/R): R
  susceptibility test value (number given before S/I/R): 160
Host strain YMC17/02/B4864
  antibiotic susceptibility S/I/R: S
  antibiotic susceptibility value: 20
  susceptibility category (S/I/R): S
  susceptibility test value (number given before S/I/R): 20
Host strain YMC17/02/B8414
  antibiotic susceptibility S/I/R: R
  antibiotic susceptibility value: 320
  susceptibility category (S/I/R): R
  susceptibility test value (number given before S/I/R): 320
Host strain YMC17/02/P523
  antibiotic susceptibility S/I/R: S
  antibiotic susceptibility value: 20
  susceptibility category (S/I/R): S
  susceptibility test value (number given before S/I/R): 20
Host strain YMC17/02/R541
  antibiotic susceptibility S/I/R: R
  antibiotic susceptibility value: 320
  susceptibility category (S/I/R): R
  susceptibility test value (number given before S/I/R): 320
Host strain YMC17/02/R2392
  antibiotic susceptibility S/I/R: R
  antibiotic susceptibility value: 320
  susceptibility category (S/I/R): R
  susceptibility test value (number given before S/I/R): 320
Host strain YMC17/03/B4730
  antibiotic susceptibility S/I/R: R
  antibiotic susceptibility value: 320
  susceptibility category (S/I/R): R
  susceptibility test value (number given before S/I/R): 320
Host strain YMC17/03/B5000
  antibiotic susceptibility S/I/R: R
  antibiotic susceptibility value: 320
  susceptibility category (S/I/R): R
  susceptibility test value (number given before S/I/R): 320
Host strain YMC17/03/P971
  antibiotic susceptibility S/I/R: R
  antibiotic susceptibility value: 320
  susceptibility category (S/I/R): R
  susceptibility test value (number given before S/I/R): 320
Host strain YMC17/03/R348
  antibiotic susceptibility S/I/R: R
  antibiotic susceptibility value: 320
  susceptibility category (S/I/R): R
  susceptibility test value (number given before S/I/R): 320
Host strain YMC17/03/R585
  antibiotic susceptibility S/I/R: R
  antibiotic susceptibility value: 320
  susceptibility category (S/I/R): R
  susceptibility test value (number given before S/I/R): 320
Host strain YMC17/03/R1888
  antibiotic susceptibility S/I/R: R
  antibiotic susceptibility value: 320
  susceptibility category (S/I/R): R
  susceptibility test value (number given before S/I/R): 320
Host strain YMC17/03/R3279
  antibiotic susceptibility S/I/R: R
  antibiotic susceptibility value: 320
  susceptibility category (S/I/R): R
  susceptibility test value (number given before S/I/R): 320
Host strain YMC17/03/R4077
  antibiotic susceptibility S/I/R: R
  antibiotic susceptibility value: 320
  susceptibility category (S/I/R): R
  susceptibility test value (number given before S/I/R): 320
Host strain YMC17/03/R4607
  antibiotic susceptibility S/I/R: R
  antibiotic susceptibility value: 320
  susceptibility category (S/I/R): R
  susceptibility test value (number given before S/I/R): 320
Host strain YMC17/04/R488
  antibiotic susceptibility S/I/R: R
  antibiotic susceptibility value: 160
  susceptibility category (S/I/R): R
  susceptibility test value (number given before S/I/R): 160
Host strain YMC17/04/R640
  antibiotic susceptibility S/I/R: R
  antibiotic susceptibility value: 320
  susceptibility category (S/I/R): R
  susceptibility test value (number given before S/I/R): 320
Host strain YMC/17/05/R1095
  antibiotic susceptibility S/I/R: R
  antibiotic susceptibility value: 320
  susceptibility category (S/I/R): R
  susceptibility test value (number given before S/I/R): 320
